In patent US20090326072A1, “USE OF 2-(2-NITRO-4-TRIFLUOROMETHYLBENZOYL)-l,3- CYCLOHEXANEDIONE IN THE TREATMENT OF PARKINSON'S DISEASE” (priority 2005, published 2009):
Entries after “also recorded” stand apart in the source; their conditions may differ. Read-outs that look alike come from different tables or passages of the source.

Experiments:
[1] = target: T1, 4-hydroxyphenyl pyruvate dioxygenase (HPPD) (Rattus norvegicus, UniProt P32755); experiment: Determination of 4-hydroxyphenyl pyruvate dioxygenase (HPPD) enzyme activity in vitro (rate of oxygen consumption, rat liver cytosol); assay type: biochemical; conditions: for inhibition at 0.1 µM: read-out: % Inhibition at 100 nM; for inhibition at 0.3 µM: read-out: % inhibition at 300 nM
T1 construct: rat liver cytosol (2.7 mg of protein/ml incubate); from tissue; host or cells: rat liver (cytosol, 110,000 g supernatant)
T1 sequence (P32755 whole entry): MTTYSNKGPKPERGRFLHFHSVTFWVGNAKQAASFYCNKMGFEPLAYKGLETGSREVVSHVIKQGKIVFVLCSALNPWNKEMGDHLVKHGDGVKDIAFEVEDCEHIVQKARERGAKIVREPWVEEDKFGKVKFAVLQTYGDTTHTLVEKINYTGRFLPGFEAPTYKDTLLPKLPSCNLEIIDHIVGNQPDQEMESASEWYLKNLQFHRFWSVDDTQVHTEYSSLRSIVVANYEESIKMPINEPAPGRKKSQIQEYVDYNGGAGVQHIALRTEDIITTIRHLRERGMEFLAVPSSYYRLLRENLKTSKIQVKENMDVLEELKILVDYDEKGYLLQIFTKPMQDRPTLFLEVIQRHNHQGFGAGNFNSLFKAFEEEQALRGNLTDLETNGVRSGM
Experimental: The principle of the assay is that 4-hydroxyphenyl pyruvate dioxygenase (HPPD), an enzyme that participates in the catabolism of tyrosine, catalyses the oxidative decarboxylation and rearrangement of 4-hydroxyphenylpyruvate (HPPA) to homogentisate, with the incorporation of both atoms of molecular oxygen into the product.
Rat liver was homogenised in buffer of the following composition; 0.25 M Sucrose, 5.4 mM EDTA, 20 mM Tris base, pH 7.4, (25% homogenate) using 6 passes of a Potter type homogeniser. The homogenate was then centrifuged at 1,800 g for 10 minutes at 4° C., the pellet was discarded and the supernatant centrifuged at 17,000 g for a further 15 minutes at 4° C. The pellet was then discarded and the supernatant centrifuged at 110,000 g for 80 minutes at 4° C. The supernatant containing the HPPD enzyme from this 110,000 g spin was collected and stored frozen at −70° C. and used in the assays of the test compounds (see below).
Prior to the start of the enzymatic reaction by the addition of HPPA substrate, the enzyme and test compound (inhibitor) were incubated together for 3 minutes.
In cases where the effects of several concentrations of an inhibitor were investigated, an IC50 value (the half-maximal inhibitory concentration of test compound) was determined by plotting the data using a non-linear regression curve-fitting program using a GraphPad Prism™ software package.
Data are expressed as mean values from two experiments except where indicated. Where appropriate the values are expressed as the mean±standard deviation.

[2] = system: plasma tyrosine; experiment: Plasma tyrosine concentration kinetic profile in the rat following a single oral dose; assay type: in vivo; conditions: for Plasma tyrosine: single oral dose 2.0 mg/kg; for Plasma Tyrosine Concentration: single oral dose 10 mg/kg
Experimental: The plasma tyrosine concentration kinetic profile in the rat was determined for each of the HPPD inhibitor test compounds by administering a single oral dose to 10-12 week old male Sprague Dawley rats. Compounds 3.20, 3.13 and 3.26 were dosed at 2 mg/kg in 1% carboxymethylcellulose (1% CMC) vehicle, whilst compounds 3.22, 3.12, 3.15, 3.18, 3.23, 3.21, 3.11, 3.01, 3.24 and 3.25 were administered at 10 mg/kg in 1% CMC.
Blood samples to determine plasma tyrosine concentration were obtained at frequent intervals during the first 24 hours post-dose, and at 48 hours post-dose. These samples were either compared with blood samples obtained from control rats which only received an equivalent volume of the vehicle, 1% CMC, or by comparison with control samples obtained from the rats 1 hour prior to dosing with test the compound. Prior to the analysis of the samples for plasma tyrosine concentration, the blood samples were centrifuged at 1800 g for 10 minutes at 4° C. The plasma was collected and then filtered through a centrifugal micro partition device at 1500 g for 30 minutes at 4° C. The filtered plasma was then divided into two aliquots and stored frozen at −70° C. for subsequent gradient reverse phase high performance liquid chromatographic (HPLC) analysis of plasma tyrosine. Aliquots of plasma were analysed by HPLC using a 250×4.6 mm Hichrom S5ODS2 column at 30° C., eluted with a mobile phase of water/acetonitrile/trifluoroacetic acid (950:50:2 v/v/v) at a flow rate of 1 ml/min. Detection was by a diode array detector at 274 nm. Appropriate tyrosine standards were run alongside the samples for calibration purposes.
The plasma tyrosine concentration kinetic profile for the test compounds 3.20, 3.13 and 3.26 are shown at the time points 1, 2, 4, 6, 12, 24 and 48 hours post-dose in Table 1.1. The data shown are the mean±standard deviation (n=4), except for the 6 hour time point where the data were obtained from n=3 rats for the control and 3.26 groups.
The plasma tyrosine concentration kinetic profile for the test compounds 3.22, 3.12, 3.15, 3.18, 3.23, 3.21, 3.11, 3.01, 3.24 and 3.25 are shown at the time points −1 hour (pre-dose control), 1, 3, 6, 12, 24 and 48 hours post-dose, in Tables 1.2 and 1.3. The data shown are the mean±standard deviation (n=3), except for the −1 hour time point with compound 3.23, where n=2 (Table 1.2), and for the 3 and 6 hour time points with compound 3.21, where n=2 (Table 1.3).

[3] = system: AMPT rat model of Parkinson's disease; experiment: AMPT rat model of Parkinson's disease (catalepsy descent latency and centre rearing counts); assay type: in vivo
Experimental: AMPT is a competitive inhibitor of tyrosine hydroxylase. Rats dosed with >150 mg/kg AMPT develop parkinsonian-like behavior and locomotor deficits (e.g. catalepsy and reduced rearing activity) within hours owing to the depletion of striatal dopamine concentration as a consequence of the reduced flux through the dopamine synthetic pathway. […] Indian J. Exp. Biol. 41, 1264-1268).
The effect was compared with appropriate vehicle control groups (oral vehicle was 1% carboxymethylcellulose; CMC) and a group that received a 150 mg/kg i.p. dose of L-dopa.
Eight hours after AMPT (or vehicle) administration rats were assessed for catalepsy and centre rearing activity. During the catalepsy test, the front paws of the rat were placed over a horizontal bar suspended 9 cm off the floor. The time taken for the rat to get off the bar (descent latency) was measured with a maximum time of 3 minutes being allowed. Centre rearing counts were determined over a 1 hour monitoring period using an automated activity monitoring system (AM1053). This system used an array of infrared beams to determine the activity and mobility of each animal. Each cage had 48 infrared beams, 24 on each of two levels arranged in an 8×16, 1″ (25.4 mm) pitch grid. The lower grid measured horizontal x, y movement, whilst the upper grid measured rearing movement. The activity detector operated by counting the number of times the beams changed from unbroken to broken and then incrementing the relevant counters.
These groups were compared to a positive control group (6) dosed with 225 mg/kg AMPT i.p.+150 mg/kg L-dopa i.p. 6.5 hour post AMPT dose. L-dopa was administered with a peripheral dopa decarboxylase inhibitor (benserazide), at 100 mg/kg i.p.
In a second and third series of experiments, the efficacy of eight other HPPD inhibitor test compounds were assessed in the AMPT rat model of Parkinson's disease (Tables 1.5 & 1.6). Male Sprague-Dawley rats (300-350 g) were administered a single i.p. dose of 225 mg/kg AMPT and a single oral dose of 10 mg/kg of the HPPD inhibitor test compound was administered either 1 or 16 hours prior to (−16 or −1 hours) AMPT administration. Behavioral assessment (catalepsy and centre rearing counts) was conducted 8 hours post AMPT administration. The effect was compared with a vehicle control group and a group receiving AMPT alone.

[4] = 225 mg/kg AMPT i.p. + 2 mg/kg oral 4 hours post AMPT (+4 hours), 8 h post AMPT
[5] = 225 mg/kg AMPT i.p. + 2 mg/kg oral 16 hours prior to AMPT (-16 hours), 8 h post AMPT
[6] = 225 mg/kg AMPT i.p. + 150 mg/kg i.p. at +6.5 hours, with benserazide 100 mg/kg i.p., 8 h post AMPT
[7] = 100 nM test compound, rat liver cytosol, 3 min pre-incubation
[8] = 300 nM test compound, rat liver cytosol, 3 min pre-incubation

COCCOCc1nc(C(F)(F)F)ccc1C(=O)C1=C(O)C2CCC(C2)C1=O (stereo not shown) [Compound 3.13]
IC50 ([1]; rat liver cytosol HPPD): 350 nM | inhibition at 0.1 µM [1]: 14% | inhibition at 0.3 µM [1]: 41% | Plasma tyrosine ([2]; 1 hour post-dose): 158 ± 6.4 nmol/mL | Plasma tyrosine ([2]; 2 hours post-dose): 209 ± 14.8 nmol/mL | Plasma tyrosine ([2]; 4 hours post-dose): 324 ± 50.2 nmol/mL | Plasma tyrosine ([2]; 6 hours post-dose): 461 ± 52.2 nmol/mL | Plasma tyrosine ([2]; 12 hours post-dose): 801 ± 24.8 nmol/mL | Plasma tyrosine ([2]; 24 hours post-dose): 1281 ± 90.0 nmol/mL | Plasma tyrosine ([2]; 48 hours post-dose): 115 ± 3.0 nmol/mL

O=C1CCCC(O)=C1C(=O)c1ccc(C(F)(F)F)cc1[N+](=O)[O-] [Compound 2, 2-(2-Nitro-4-Trifluoromethylbenzoyl)-1,3-Cyclohexanedione]
Mean Catalepsy Descent Latency (s) [3, 4]: 27 ± 6.7^++ s | Mean Centre Rearing Counts [3, 4]: 298 ± 57^++ counts | Mean Catalepsy Descent Latency (s) [3, 5]: 27 ± 5.4^++ s | Mean Centre Rearing Counts [3, 5]: 364 ± 74^++ counts | Mean Catalepsy Descent Latency ([3]; AMPT vehicle (saline i.p., no AMPT) + 2 mg/kg oral at +4 hours, assessed 8 h): 12 ± 4.3 s | Mean Centre Rearing Counts ([3]; AMPT vehicle (saline i.p., no AMPT) + 2 mg/kg oral at +4 hours, assessed 8 h, 1 hour monitoring): 485 ± 108 counts | reversal of AMPT induced deficits in centre rearing counts (in words) ([3]; single oral dose 2 mg/kg, 2 mg/kg): reversed; also recorded: effective in reversing | reversal of AMPT induced catalepsy (in words) ([3]; single oral dose 2 mg/kg, both dosing regimens, 2 mg/kg): substantially reversed; also recorded: effective in reversing

N[C@@H](Cc1ccc(O)c(O)c1)C(=O)O [L-dopa, L-3,4-dihydroxyphenylalanine, reference compound]
Mean Catalepsy Descent Latency (s) [3, 6]: 25 ± 6.9^++ s | Mean Centre Rearing Counts [3, 6]: 258 ± 71^+ counts

Cc1nc(C(F)F)ccc1C(=O)C1C(=O)C2CCC(C2)C1=O (stereo not shown) [Compound 3.26]
inhibition at 0.1 µM [1, 7]: 20 ± 6.1% | inhibition at 0.3 µM [1, 8]: 43% | Plasma tyrosine ([2]; 1 hour post-dose): 173 ± 9.6 nmol/mL | Plasma tyrosine ([2]; 2 hours post-dose): 241 ± 24.0 nmol/mL | Plasma tyrosine ([2]; 4 hours post-dose): 337 ± 53.5 nmol/mL | Plasma tyrosine ([2]; 6 hours post-dose): 504 ± 72.7 nmol/mL | Plasma tyrosine ([2]; 12 hours post-dose): 897 ± 140.8 nmol/mL | Plasma tyrosine ([2]; 24 hours post-dose): 1987 ± 50.0 nmol/mL | Plasma tyrosine ([2]; 48 hours post-dose): 2449 ± 156.8 nmol/mL

CC1=NN(C)C(=O)C1C(=O)c1ccc(C(F)(F)F)cc1S(C)(=O)=O (stereo not shown) [Compound 3.21]
inhibition at 0.1 µM [1]: 10% | inhibition at 0.3 µM [1]: 43% | Plasma Tyrosine Concentration ([2]; 1 hour post-dose): 177 ± 17.8 nmol/mL | Plasma Tyrosine Concentration ([2]; 3 hours post-dose): 300 nmol/mL | Plasma Tyrosine Concentration ([2]; 6 hours post-dose): 472 nmol/mL | Plasma Tyrosine Concentration ([2]; 12 hours post-dose): 555 ± 39.0 nmol/mL | Plasma Tyrosine Concentration ([2]; 24 hours post-dose): 181 ± 23.6 nmol/mL | Plasma Tyrosine Concentration ([2]; 48 hours post-dose): 100 ± 6.4 nmol/mL

CCOc1c(S(C)(=O)=O)ccc(C(=O)C2C(=O)CC(C)CC2=O)c1Cl (stereo not shown) [Compound 3.22]
inhibition at 0.1 µM [1, 7]: 44% | Plasma Tyrosine Concentration ([2]; 1 hour post-dose): 179 ± 18.5 nmol/mL | Plasma Tyrosine Concentration ([2]; 3 hours post-dose): 319 ± 43.5 nmol/mL | Plasma Tyrosine Concentration ([2]; 6 hours post-dose): 507 ± 86.4 nmol/mL | Plasma Tyrosine Concentration ([2]; 12 hours post-dose): 1011 ± 134.8 nmol/mL | Plasma Tyrosine Concentration ([2]; 24 hours post-dose): 2067 ± 36.6 nmol/mL | Plasma Tyrosine Concentration ([2]; 48 hours post-dose): 2377 ± 518.5 nmol/mL

CS(=O)(=O)c1cc(Cl)ccc1C(=O)c1cnoc1C1CC1 [Compound 3.25]
inhibition at 0.1 µM [1, 7]: 5% | inhibition at 0.3 µM [1, 8]: 22% | Plasma Tyrosine Concentration ([2]; 1 hour post-dose): 162 ± 17.7 nmol/mL | Plasma Tyrosine Concentration ([2]; 3 hours post-dose): 267 ± 19.4 nmol/mL | Plasma Tyrosine Concentration ([2]; 6 hours post-dose): 370 ± 60.8 nmol/mL | Plasma Tyrosine Concentration ([2]; 12 hours post-dose): 415 ± 152.8 nmol/mL | Plasma Tyrosine Concentration ([2]; 24 hours post-dose): 136 ± 31.2 nmol/mL | Plasma Tyrosine Concentration ([2]; 48 hours post-dose): 100 ± 13.5 nmol/mL
